Test results taken from ChEMBL document CHEMBL5356995, “Aurones and derivatives as promising New Delhi metallo-β-lactamase (NDM-1) inhibitors” (Bioorg Med Chem, 2024).

Legend:
[1] = molecular target: Metallo-beta-lactamase type 2 (Bacteria) (UniProt C7C422); experiment: Inhibition of bacterial NDM-1 assessed as substrate hydrolysis at 50 uM using imipenem as substrate by spectrophotometric analysis relative to control
Bacteria [2] = experiment: Inhibition of bacterial VIM-2 assessed as substrate hydrolysis at 50 uM using imipenem as substrate by spectrophotometric analysis relative to control
Bacteria [3] = experiment: Inhibition of bacterial IMP-1 assessed as substrate hydrolysis at 50 uM using imipenem as substrate by spectrophotometric analysis relative to control
Klebsiella pneumoniae = experiment: Potentiation of meropenem induced antibacterial activity against blaNDM-1 producing Klebsiella pneumoniae SI-518 assessed as reduction in meropenem MIC at 32 ug/ml (reference value: 128 ug/ml); type: functional; settings: dose 32 µg/ml
Escherichia coli [4] = experiment: Potentiation of meropenem induced antibacterial activity against blaNDM-1 producing Escherichia coli SI-004M assessed as reduction in meropenem MIC at 32 ug/ml (reference value: 64 ug/ml); type: functional; settings: dose 32 µg/ml
Escherichia coli [5] = experiment: Potentiation of meropenem induced antibacterial activity against blaNDM-4 producing Escherichia coli SI-G001 assessed as reduction in meropenem MIC at 32 ug/ml (reference value: 128 ug/ml); type: functional; settings: dose 32 µg/ml
[6] = molecular target: Metallo-beta-lactamase type 2 (Bacteria, UniProt C7C422); experiment: Competitive inhibition of NDM-1 using imipenem as substrate by spectrophotometric analysis
Sequence of Metallo-beta-lactamase type 2 (C7C422 whole entry): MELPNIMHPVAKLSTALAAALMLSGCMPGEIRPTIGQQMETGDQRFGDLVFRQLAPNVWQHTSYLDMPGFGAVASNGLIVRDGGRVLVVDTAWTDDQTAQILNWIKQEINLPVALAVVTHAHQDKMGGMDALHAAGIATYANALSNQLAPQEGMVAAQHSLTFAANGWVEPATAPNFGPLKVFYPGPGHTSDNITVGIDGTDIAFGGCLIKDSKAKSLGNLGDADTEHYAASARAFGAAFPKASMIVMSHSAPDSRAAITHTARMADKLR

Sequence of Metallo-beta-lactamase type 2 (Bacteria) (C7C422 whole entry): as above

SMILES | inhibition [1] [%] | inhibition (Bacteria [2]) [%] | inhibition (Bacteria [3]) [%] | MIC (Klebsiella pneumoniae) [µg/mL] | MIC (Escherichia coli [4]) [µg/mL] | MIC (Escherichia coli [5]) [µg/mL] | Ki [6] [µM]
COc1cc(/C=C2\Oc3cc(O)ccc3C2=O)ccc1O | < 10 | 14 | 13 | – | – | – | –
O=C1/C(=C/c2ccc(O)c(O)c2)Oc2cccc(O)c21 | 12 | < 10 | < 10 | – | – | – | –
O=C1/C(=C/c2ccc(O)cc2O)Oc2c(O)cccc21 | < 10 | < 10 | < 10 | – | – | – | –
COc1cc(O)ccc1/C=C1\Oc2ccccc2C1=O | < 10 | < 10 | < 10 | – | – | – | –
C=CCn1cc(/C=C2\Oc3cc(O)cc(O)c3C2=O)c2ccccc21 | < 10 | < 10 | 16 | – | – | – | –
COc1ccc(/C=C2\Oc3ccccc3C2=O)c(OC)c1OC | < 10 | < 10 | < 10 | – | – | – | –
O=C1/C(=C/c2ccc(Cl)cc2)Oc2c(O)cccc21 | < 10 | < 10 | < 10 | – | – | – | –
O=C1/C(=C/c2ccc(O)cc2O)Oc2cc(O)cc(O)c21 | < 10 | < 10 | 14 | – | – | – | –
COc1ccc(/C=C2\Oc3cc(O)ccc3C2=O)c(OC)c1 | 17 | < 10 | 17.9 | – | – | – | –
CCCCOc1ccc(/C=C2\Oc3cc(O)cc(O)c3C2=O)cc1 | 41 | < 10 | 25 | – | – | – | –
NCCN[C@H]1CC[C@@H](CC(=O)N[C@H]2Cc3cccc(C(=O)O)c3OB2O)CC1 | > 98 | > 98 | 41 | – | – | – | –
CN1CCN(c2ccc(/C=C3\Oc4cc(O)ccc4C3=O)cc2)CC1 | < 10 | < 10 | 19 | – | – | – | –
O=C1/C(=C/c2ccc(N3CCCCC3)cc2)Oc2cc(O)cc(O)c21 | 74 | 17 | 20 | 64 | 64 | 128 | 4.8
O=C1/C(=C/c2cn(CC3CCCCC3)c3ccccc23)Oc2cc(O)cc(O)c21 | 72 | < 10 | 44 | 16 | 64 | 64 | 2.5
O=C1/C(=C/c2ccc(-n3ccnc3)cc2)Oc2cc(O)cc(O)c21 | 51 | < 10 | 23 | – | – | – | –
COc1ccc(/C=C2\Oc3cc(O)cc(O)c3C2=O)c(OC)c1 | 52 | < 10 | 43.6 | – | – | – | –
O=C1/C(=C/c2ccc(O)cc2O)Oc2cc(O)ccc21 | < 10 | < 10 | < 10 | – | – | – | –
O=C1/C(=C/c2ccccc2O)Oc2cc(O)cc(O)c21 | < 10 | < 10 | 14 | – | – | – | –
O=C1/C(=C/c2ccc(O)cc2O)Oc2c1ccc(O)c2I | < 10 | 13 | 15 | – | – | – | –
COc1ccc(/C=C2\Oc3cc(O)cc(O)c3C2=O)cc1OC | 23 | < 10 | 21 | – | – | – | –
COc1ccc(/C=C2\Oc3c(O)cccc3C2=O)cc1 | 20 | < 10 | < 10 | – | – | – | –

SMILES | inhibition [1] [%] | inhibition (Bacteria [2]) [%] | inhibition (Bacteria [3]) [%] | MIC (Klebsiella pneumoniae) [µg/mL] | MIC (Escherichia coli [4]) [µg/mL] | MIC (Escherichia coli [5]) [µg/mL] | Ki [6] [µM]
COc1ccc(/C=C2\Oc3cc(O)cc(O)c3C2=O)cc1 | 38 | < 10 | 20 | – | – | – | –
CCCCOc1ccc(/C=C2\Oc3cc(O)cc(O)c3C2=O)c(O)c1 | 46 | – | – | – | – | – | –
COc1cc(OC)c2c(c1)O/C(=C\c1ccc(-c3cccs3)cc1)C2=O | 39 | < 10 | 24 | – | – | – | –
O=C1/C(=C/c2ccc(C3CCCCC3)cc2)Oc2cc(O)cc(O)c21 | 16 | < 10 | < 10 | – | – | – | –
O=C1/C(=C/c2ccc(F)cc2)Oc2c(O)cccc21 | < 10 | < 10 | < 10 | – | – | – | –
Cn1cc(/C=C2\Oc3cc(O)ccc3C2=O)c2cc(Br)ccc21 | 18 | < 10 | 39 | – | – | – | –
O=C1/C(=C/c2ccc(O)cc2O)Oc2c1ccc(O)c2O | 20 | < 10 | 24 | – | – | – | –
COc1ccc(/C=C2\Oc3cc(O)cc(O)c3C2=O)c(OC)c1OC | 14 | < 10 | 20 | – | – | – | –
O=C1/C(=C/c2ccc(O)cc2O)Oc2ccccc21 | < 10 | < 10 | < 10 | – | – | – | –
O=C1/C(=C/c2cn(Cc3ccc(Br)cc3)c3ccccc23)Oc2cc(O)cc(O)c21 | 44 | < 10 | 22 | – | – | – | –
COc1cc(/C=C2\Oc3ccccc3C2=O)ccc1O | < 10 | < 10 | < 10 | – | – | – | –
CN(C)c1ccc(/C=C2\Oc3cc(O)cc(O)c3C2=O)c(O)c1 | 55 | < 10 | 27 | – | – | – | –
CC[C@H](C)Cn1cc(/C=C2\Oc3cc(O)cc(O)c3C2=O)c2ccccc21 | 49 | < 10 | 46 | – | – | – | –
O=C1/C(=C/c2ccc3ccccc3c2)Oc2c1ccc(O)c2O | 50 | < 10 | 19 | – | – | – | –
O=C1/C(=C/c2c(O)cc(O)cc2O)Oc2cc(O)ccc21 | < 10 | < 10 | < 10 | – | – | – | –
CC(C)CCn1cc(/C=C2\Oc3cc(O)cc(O)c3C2=O)c2ccccc21 | 18 | < 10 | 47.1 | – | – | – | –
COc1cc(O)ccc1/C=C1\Oc2cc(O)ccc2C1=O | < 10 | < 10 | 13 | – | – | – | –
O=C1/C(=C/c2ccc(C(F)(F)F)cc2)Oc2c1ccc(O)c2O | < 10 | < 10 | 17 | – | – | – | –
Cc1cccc(Cn2cc(/C=C3\Oc4cc(O)cc(O)c4C3=O)c3ccccc32)c1 | 54 | 11 | 43 | – | – | – | –
CN1CCN(c2ccc(/C=C3\Oc4cccc(O)c4C3=O)cc2)CC1 | < 10 | < 10 | 12 | – | – | – | –
O=C1/C(=C/c2cn(CCCc3ccccc3)c3ccccc23)Oc2cc(O)cc(O)c21 | 68.7 | < 10 | 41 | 32 | 32 | 64 | 17

SMILES | inhibition [1] [%] | inhibition (Bacteria [2]) [%] | inhibition (Bacteria [3]) [%] | MIC (Klebsiella pneumoniae) [µg/mL] | MIC (Escherichia coli [4]) [µg/mL] | MIC (Escherichia coli [5]) [µg/mL] | Ki [6] [µM]
O=C1/C(=C/c2cn(Cc3cccc(O)c3)c3ccccc23)Oc2cc(O)cc(O)c21 | 78 | < 10 | 31 | 64 | 64 | 128 | 16
COc1ccc(/C=C2\Oc3c(ccc(O)c3O)C2=O)c(OC)c1 | 30 | 10.3 | 28 | – | – | – | –
O=C1/C(=C/c2c(O)cc(O)cc2O)Oc2c(O)cccc21 | < 10 | < 10 | < 10 | – | – | – | –
O=C(O)c1ccc(/C=C2\Oc3c(O)cccc3C2=O)cc1 | 24 | < 10 | < 10 | – | – | – | –
COc1ccc(/C=C2\Oc3c(ccc(O)c3O)C2=O)c(O)c1 | 84.5 | < 10 | 49 | 32 | 32 | 128 | 1.7
CCCCn1cc(/C=C2\Oc3cc(O)cc(O)c3C2=O)c2cc(O)ccc21 | < 10 | < 10 | 30 | – | – | – | –
O=C1/C(=C/c2ccc(O)cc2)Oc2cc(O)cc(O)c21 | < 10 | < 10 | 12.4 | – | – | – | –
COc1cc(OC)c2c(c1)O/C(=C\c1ccc(OC)c(OC)c1OC)C2=O | < 10 | < 10 | 17 | – | – | – | –
Cn1cc(/C=C2\Oc3cc(O)cc(O)c3C2=O)c2ccccc21 | 46 | < 10 | 28 | – | – | – | –
O=C1/C(=C/c2ccccc2O)Oc2cc(O)ccc21 | < 10 | < 10 | < 10 | – | – | – | –
CC(C)(C)CCn1cc(/C=C2\Oc3cc(O)cc(O)c3C2=O)c2ccccc21 | 11.2 | < 10 | 28 | – | – | – | –
Cn1cc(/C=C2\Oc3cccc(O)c3C2=O)c2cc(Br)ccc21 | < 10 | < 10 | 21.4 | – | – | – | –
Cc1ccc(O)c(/C=C2\Oc3cc(O)cc(O)c3C2=O)c1 | < 10 | < 10 | 12 | – | – | – | –
O=C1/C(=C/c2cn(Cc3ccccc3Br)c3ccccc23)Oc2cc(O)cc(O)c21 | < 10 | < 10 | 23 | – | – | – | –
CCCCc1ccc(/C=C2\Oc3c(ccc(O)c3O)C2=O)cc1 | < 10 | < 10 | < 10 | – | – | – | –
O=C1/C(=C/c2cn(Cc3cccc(Br)c3)c3ccccc23)Oc2cc(O)cc(O)c21 | 69 | < 10 | 43 | 32 | 32 | 64 | 5.5
COc1ccc(/C=C2\Oc3cc(OC)cc(OC)c3C2=O)c(OC)c1 | < 10 | < 10 | < 10 | – | – | – | –
O=C1/C(=C/c2ccc(Cl)cc2)Oc2cc(O)cc(O)c21 | 11 | < 10 | 14 | – | – | – | –
COc1cc(OC)c2c(c1)O/C(=C\c1ccc(F)cc1F)C2=O | 35 | < 10 | 32 | – | – | – | –
CCc1ccc(/C=C2\Oc3cc(O)cc(O)c3C2=O)cc1 | 55 | < 10 | 24.9 | – | – | – | –
